In ChEMBL document CHEMBL2203217, “Prohormone-substrate peptide sequence recognition by peptidylglycine α-amidating monooxygenase and its reflection in increased glycolate inhibitor potency” (Bioorg Med Chem Lett, 2012):

What was measured:
[1] = molecular target: T1, Peptidyl-glycine alpha-amidating monooxygenase (Homo sapiens, UniProt P19021); assay: Competitive inhibition of secreted PAM in human DMS53 cell culture medium using as(R)-Tyr-(S)-Val-Gly as substrate after 2 hrs by HPLC analysis; set-up: species or system DMS-53
T1 sequence (P19021 whole entry): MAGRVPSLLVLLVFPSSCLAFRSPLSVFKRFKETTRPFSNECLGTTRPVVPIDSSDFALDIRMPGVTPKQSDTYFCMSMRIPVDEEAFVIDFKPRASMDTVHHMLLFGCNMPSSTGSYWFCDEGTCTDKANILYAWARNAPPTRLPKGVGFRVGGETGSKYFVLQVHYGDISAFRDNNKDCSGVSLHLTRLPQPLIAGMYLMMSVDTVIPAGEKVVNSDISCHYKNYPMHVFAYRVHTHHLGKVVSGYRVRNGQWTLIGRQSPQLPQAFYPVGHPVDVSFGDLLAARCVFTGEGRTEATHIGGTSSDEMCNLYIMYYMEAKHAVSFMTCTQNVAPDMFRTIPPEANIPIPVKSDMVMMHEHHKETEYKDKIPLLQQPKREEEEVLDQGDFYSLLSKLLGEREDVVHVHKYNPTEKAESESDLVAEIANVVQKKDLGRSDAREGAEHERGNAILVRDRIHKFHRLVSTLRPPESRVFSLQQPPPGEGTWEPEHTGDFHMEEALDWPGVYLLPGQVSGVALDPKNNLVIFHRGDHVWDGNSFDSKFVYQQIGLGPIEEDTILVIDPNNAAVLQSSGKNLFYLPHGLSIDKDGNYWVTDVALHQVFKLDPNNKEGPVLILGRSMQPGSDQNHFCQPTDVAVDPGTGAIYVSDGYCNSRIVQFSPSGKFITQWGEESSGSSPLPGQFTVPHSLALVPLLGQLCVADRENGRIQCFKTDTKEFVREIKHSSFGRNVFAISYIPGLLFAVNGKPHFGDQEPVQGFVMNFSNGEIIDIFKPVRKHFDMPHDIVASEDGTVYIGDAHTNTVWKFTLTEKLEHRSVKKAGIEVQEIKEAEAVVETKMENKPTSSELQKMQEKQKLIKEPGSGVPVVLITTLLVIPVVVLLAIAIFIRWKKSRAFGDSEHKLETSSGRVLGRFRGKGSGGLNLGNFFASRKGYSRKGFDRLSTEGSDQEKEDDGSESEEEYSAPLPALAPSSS

[2] = molecular target: T1, Peptidyl-glycine alpha-amidating monooxygenase; assay: Competitive inhibition of PAM in human DMS53 cells using as(R)-Tyr-(S)-Val-Gly as substrate after 2 hrs by HPLC analysis; type: cell-based, DMS-53

Q: What does the source list for `CC(=O)OCC(=O)O`?
A: IC50 [1]: 1100 µM; IC50 [2]: 1100 µM
